COc1c(F)c(F)cc2c(O)c(C(=O)NCc3ccc(Cl)cc3)cnc12 gave a melting point of 248 to 251 °C.
With Cc1c(-c2ccc(F)cc2)nnn1CCC#Cc1ccccn1 the melting point was 130 to 131 °C.
For COc1ccc(CCc2c(Cl)cncc2Cl)c2cc(C#N)nn12, the melting point was 208 to 209 °C.
In the case of CS(=O)(=O)Oc1ccc(-c2c3ccccc3cc3sc4ccccc4c23)cc1, the melting point is reported as 136 to 139 °C.
With CC1Cc2c(F)c(F)cc3c(=O)c(C(=O)O)cn(c23)N1C (stereo not drawn) the melting point was 270 to 271 °C.
For C=C(C)C(=O)NNc1ccnc2c(NC(=O)c3c(Cl)cccc3Cl)cccc12, the melting point was 277 to 280 °C.
For CCCc1ncc(/C=C(\Cc2cccs2)C(=O)O)n1Cc1ccccc1[N+](=O)[O-], the melting point was 223 °C.
COc1cccc2c(=O)cc(C=Cc3ccc(C#N)cc3)oc12 showed a melting point of 274 to 275 °C.
Compound NC(=S)c1ncn(C2OC(CO)C(O)C2O)n1 (stereo not drawn) has a melting point of 173 to 175 °C.
O=c1[nH]c(Nc2ccccc2)nc2c1ncn2CC(O)CO (stereo not drawn) showed a melting point of 312 to 315 °C.
O=C(O)CCCCCn1sc2ccccc2c1=O showed a melting point of 59 to 61 °C.
For CC(C)NC(=O)N1C2=NC(C)(C)N(C)C(=O)N2c2ccccc21, the melting point was 93 to 96 °C.
In the case of O=C(Cc1c(-c2ccccc2)c2cc(CN3CCOCC3)c(Cl)cc2oc1=O)Nc1ccc(Cl)cc1C(F)(F)F, the melting point is reported as 205 to 207 °C.
O=[N+]([O-])c1ccc2[nH]cc(CCCBr)c2c1 gave a melting point of 92 to 95 °C.
In the case of COC(=O)C1=CC(C(=O)OC)NC(=O)N1 (stereo not drawn), the melting point is reported as 177 to 179 °C.
COc1ccc2nc(NC(=O)C(CC3CCCC3)c3ccc(S(=O)(=O)N(C)Cc4ccccc4)cc3)sc2n1 (stereo not drawn) gave a melting point of 206 to 208 °C.
COCOc1nn(-c2ccccc2)cc1C=O showed a melting point of 106 to 107 °C.
Compound O=C1c2ccccc2C(=O)c2sc(-c3ccccn3)nc21 has a melting point of over 260 °C.
Work on CNC(=O)c1ccccc1Nc1nc(Nc2cccc3c2C(=O)N(C)CCN3C)ncc1Cl yielded a melting point of 204 °C.
In the case of O=C(c1cccnc1)N1N=CCC1c1ccccc1 (stereo not drawn), the melting point is reported as 100 to 102 °C.
Work on CC(=O)Nc1ccc(S(=O)(=O)CCCl)cc1 yielded a melting point of 188 °C.
Work on CC(C)OC(=O)N[C@@H](C(=O)O)c1ccccc1 yielded a melting point of 123 to 127 °C.
With CN(C)C(=O)c1c(F)cccc1I the melting point was 86 to 89 °C.
For O=S(Cc1cccc(C(F)(F)F)c1)c1nc2cnccc2[nH]1 (stereo not drawn), the melting point was 194 to 197 °C.
Compound O=c1[nH]sc2c1c(=O)c1cc(F)c(N3CCNCC3)cc1n2C1CC1 has a melting point of over 275 °C.
With CN1C(=O)CN(N)C(c2ccccc2)c2cc(Cl)ccc21 (stereo not drawn) the melting point was 147 to 148 °C.
CSc1sc(-c2ccn(S(C)(=O)=O)n2)c2c1C(=O)CC(C)(C)C2 gave a melting point of 193 to 195 °C.
With COCCCN1C(=O)COc2ccc(Br)cc21 the melting point was 193 to 195 °C.
Compound Cc1nc2cnccc2n1-c1ccc(Cn2c(=O)sc3ccccc32)cc1 has a melting point of 198 to 201 °C.
Work on CC(C)CCNC(=O)CNC(=O)C(Br)Cc1ccccc1 (stereo not drawn) yielded a melting point of 110 °C.
For O=C1c2c(Cl)cccc2-n2cnc(C(=O)n3ccnc3)c2[C@@H]2CCCN12, the melting point was 240 to 242 °C.
Work on CCCC1=C(C(=O)OCC)C(c2ccccc2OCC)c2c[nH]nc2N1 (stereo not drawn) yielded a melting point of 203 °C.
In the case of CC(c1ccccc1)N1CCC(CO)C1 (stereo not drawn), the melting point is reported as 86 to 88 °C.
Compound O=[N+]([O-])c1cnn2c1-c1ccccc1NC2c1ccccc1O (stereo not drawn) has a melting point of 235 to 237 °C.
CCCCCc1cnc(-c2ccc(C#N)cc2)nc1 gave a melting point of 69.4 to 70.8 °C.
Compound CCOC(=O)CCCCCN(C)S(=O)(=O)C=C(C(C)=O)c1cccc([N+](=O)[O-])c1 has a melting point of 60 to 63 °C.
Compound COc1cc(N(CC(N)=O)S(=O)(=O)c2ccc(OC)c(OC)c2)c(C(O)c2c(F)cccc2F)cc1C (stereo not drawn) has a melting point of 204 °C.
C[Si](C)(C)CC(CN)CC(=O)O (stereo not drawn) gave a melting point of 167 to 168 °C.
With CC(=O)O/N=C(\C)[C@H]1CC[C@H]2[C@@H]3CCC4=CC(=O)CC[C@]4(C)[C@H]3CC[C@]12C the melting point was 158 to 160 °C.
For CCCCCCCCCCOc1ccc2cc(C#CC(C)O)ccc2c1 (stereo not drawn), the melting point was 74 to 75 °C.
With C#Cc1ccc(Cn2cc(-c3ccc(OC)cc3)ccc2=O)cn1 the melting point was 273 °C.
CC(=O)Nc1ccc2c3c(oc2c1)CC(C(=O)O)CC3 (stereo not drawn) gave a melting point of 229 to 230 °C.
With COc1cccc(C23CCCC=C2C(=O)N(CC2CCC2)C(=O)C3)c1 (stereo not drawn) the melting point was 89 to 93 °C.
With CSc1cnc2cc(Cl)sc2c1O the melting point was 235 to 237 °C.
Work on OCCCOc1ccc(-n2nc(-c3ccccc3)c3cccnc32)cc1 yielded a melting point of 135 to 138 °C.
Work on CCOC(=O)/C=C/c1c(C)nn(Cc2ccc(OCc3nc(-c4ccccc4)oc3C)cc2)c1C yielded a melting point of 98 to 99 °C.
With COc1ccc(NC(=O)c2ccccc2O)cc1 the melting point was 162 to 163 °C.
For COc1ccc(CN(C)CCCOc2ccc(NC(=O)c3cccc4c(=O)c5ccccc5[nH]c34)cc2)cc1OC, the melting point was 130 °C.
For O=C(CC(O)(c1cc(Cl)cc(Cl)c1)C(F)(F)F)c1ccc(F)c(Br)c1 (stereo not drawn), the melting point was 134 to 135 °C.
O=[N+]([O-])c1c(Cl)c(Cl)cc2c1OC(F)(F)O2 gave a melting point of 29 to 30 °C.
For O=[N+]([O-])c1cc([N+](=O)[O-])c(OCCO)cc1Cl, the melting point was 98 to 100 °C.
Work on CC(C)P1(=O)c2ccccc2CN1c1cccc(C(F)(F)F)c1 (stereo not drawn) yielded a melting point of 117 to 119 °C.
Work on CC1(C)c2ccccc2-c2[nH]c3ccccc3c21 yielded a melting point of 160 °C.
Work on CCCCCCCCCCCCC(=O)Nc1ccn(C2OC(CO)C(O)C2O)c(=O)n1 (stereo not drawn) yielded a melting point of 143 to 146 °C.
Compound O=C(Cl)CC1(c2ccccc2)C(=O)Oc2ccc(Cl)cc21 (stereo not drawn) has a melting point of 107 °C.
With O=C(O)c1cn(C2CC2)c2c(F)c(N3CCC(n4cc(-c5ccccc5)nn4)C3)c(F)cc2c1=O (stereo not drawn) the melting point was 241 °C.
In the case of O=C1N=C(N2CCOCC2)SC1=Cc1ccccc1-c1ccc(O)c(C23CC4CC(CC(C4)C2)C3)c1, the melting point is reported as 321 to 324 °C.
Compound CCCc1cc(=O)oc2cc(O)ccc12 has a melting point of 135 to 137 °C.
Work on O=C(Cc1ccc(Cl)c(Cl)c1)N1CCNC2CCCCC21 (stereo not drawn) yielded a melting point of 119 to 120 °C.
In the case of Cn1c(Sc2cc(C(F)(F)F)ccc2C#N)n[nH]c1=O, the melting point is reported as 182 °C.
For Cc1ccc(C2(c3ccc(C)cc3)CCN=C2NC(=O)c2cc(C)n[nH]2)cc1, the melting point was 243 to 245 °C.
Cc1[nH]c2ccccc2c1CCN1CCN(C(c2ccc(F)cc2)c2ccc(F)cc2)CC1 showed a melting point of 65 to 73 °C.
With CS(=O)(=O)Nc1cc([C@@H](O)CNC2CCN(c3ccc(CCC(=O)O)cc3)CC2)ccc1O the melting point was 130 to 133 °C.
O=C(O)c1cc2c(F)ccc(Cl)c2s1 gave a melting point of 248 to 249 °C.
Work on O=C(NCCF)c1ccc(CCN2CC=C(c3c[nH]c(-c4ccc(F)cc4)c3-c3ccncc3)CC2)cc1 yielded a melting point of 209 to 211 °C.
Work on O=C(Nc1ccc(Cl)c(Cl)c1)c1ccccc1SSc1ccccc1C(=O)Nc1ccc(Cl)c(Cl)c1 yielded a melting point of 230 to 233 °C.
Work on O=C(Cc1ccsc1)N1C(=O)OC[C@@H]1Cc1ccccc1 yielded a melting point of 80 to 81 °C.
With Cc1cc(C(C)(C)C)c(O[Si](C)(C)N=C=S)c(C(C)(C)C)c1 the melting point was 83 to 84 °C.
Work on COCOc1ccc(-n2nc(C(F)(F)F)cc2-c2ccc(S(C)(=O)=O)cc2)cc1 yielded a melting point of 96 to 97 °C.
For CC(C)(COc1ccc([N+](=O)[O-])cc1)N1CC(COc2cccc(Cl)c2)OC1=O (stereo not drawn), the melting point was 108 to 112 °C.
CC(=O)c1ccc(C=CC(=O)NCCO)cc1 gave a melting point of 124 to 125 °C.
Compound C[C@@H]1CN(c2cccc(-c3cn[nH]c3N)c2)C[C@H](C)O1 has a melting point of 158 to 160 °C.
O=C1NC(=O)c2c1c(-c1ccccc1)cc1c2c2cc(O)ccc2n1CCCN1CCNCC1 showed a melting point of 178 to 183 °C.
